# “Also recorded” adds a separate entry of the source. Like-named read-outs stand apart in the source and are kept apart here.
# Legend:
# HT-1080 cells [1] = assay: Rescue activity of Fer-1 analogs: inhibition of erastin-, IKE- or RSL3-induced death (Alamar Blue viability); assay type: cell-based; details: Homo sapiens
# Description: HT-1080 cells are cultured in DMEM containing 10% fetal bovine serum, 1% supplemented non-essential amino acids and 1% pen/strep mixture (Gibco) and maintained in a humidified environment at 37° C. with 5% CO2 in a tissue culture incubator. 1,000 HT-1080 cells are seeded per well in duplicate 384-well plates (Corning) using a BioMek FX liquid handling robot (Beckman Coulter). The next day, the medium is replaced with 36 μL of medium containing 10 μM erastin with 4 μL of medium containing a dilution series (previously prepared) of DMSO, Fer-1 (positive control) or Fer-1 analogs. […] Cells are incubated a further 6 hours and then the Alamar Blue fluorescence intensity recorded using a Victor 3 platereader (PerkinElmer)(ex/em 530/590). All experiments are performed at least twice and the background (no cells)-subtracted Alamar Blue values for each combination are averaged between replicates. The same procedure was repeated by replacing erastin (10 μM) with IKE (3 μM) or RSL3 (0.2 μM).
# [2] = Microsomal stability, mouse liver microsomes (Table 1); assay type: in vitro ADME, Mouse: CD1; details: for average % remaining after 120 minutes: compounds with t1/2 > 120 min, in parentheses; for half-life: liver microsomes
# Description: Each compound (1 μM) is incubated with mouse plasma, for 4 hours at 37° C., with shaking at 100 rpm. The concentration of compound in the buffer and plasma chambers is determined using LC-MS/MS. Metabolism of each compound is predicted using Sites of Metabolism (Schrodinger Suite), which combines intrinsic reactivity analysis (Hammett-Taft) with induced fit docking against 2C9, 2D6 and 3A4. This approach identifies 90% of known metabolism sites and has a false positive rate of 17%. The in vitro metabolic stability of each compound in mouse liver microsomes is determined. Pooled mouse liver microsomes are prepared and stored at −80° C. until needed. […]
# HT-1080 cells [3] = assay: Rescue activity of selected Fer-1 analogs, dose-response in HT-1080 cells (cell titer glo); assay type: cell-based; details: for potency compared, in words: 0.2 μM RSL3, 10 μM erastin; for IC50: Homo sapiens, HT-1080, range 10 μM-0 μM, 48 hours; for toxicity (overall drop in viability): at 10 μM compound
# Description: Selected Fer-1 analogs containing a pyridine moiety (FIG. 4) were tested to examine their efficacy and overall potency in inhibiting ferroptosis. For each of these compounds, dose-response curves were generated in HT-1080 cells looking at the effectiveness of the molecules in inhibiting ferroptosis induced by either 3 μM IKE or 0.2 μM RSL3, Fer-1 was used as a positive control. For each dose-response curve, 1,000 cells/well were seeded in a 384 well plate and allowed to adhere overnight prior to treating with compound from a daughter plate. Cells were treated for 48 hours, unless otherwise noted, prior to viability being analyzed using cell titer glo (40 μL per well). All liquid handling was performed using the BioMek. All samples were prepared in triplicate, unless otherwise noted.
# [4] = Microsomal Stability Assay (Examples 6 and 8); assay type: in vitro ADME, mouse; details: for microsomal stability / half-life, in words: assessed over two hours
# Description: (§1) To a 96-well polypropylene plate was added phosphate buffer (182.2 μL, pH 7.4, 100 mM) followed by addition of NADPH-regenerating system solution A (10 μL), and NADPH regenerating system solution B (2 μL) (Corning Gentest 3P NADPH regenerating system solution A (#451220) and B (#451200)). A stock solution of analog (0.8 μL. 5 mM) or fer-1 (positive control) was added and the mixture was warmed to 37° C. for 5 min. Mouse microsomes (CD-1, 20 mg/mL, Life Technologies) (5 μL, thawed in 37° C. water bath before use) were added. The resulting reaction mixture was kept at 37° C. with gentle agitation for the duration of the experiment. At selected time points (0, 1, 5, 10, 20, 30, 60 and 120 min) aliquots (15 μL) were withdrawn from the plate and quenched upon addition to cold methanol (60 μL), containing an internal standard (5 μM) in a separate 96-well polypropylene plate. At the completion of the final time-point, the samples were centrifuged at 4,000 rpm for 5 min at 4° C. The supernatant (40 μL) was withdrawn and transferred to a sample vial with insert. The samples were analyzed by LC-MS. LC-MS analysis was performed on a platform comprising a Thermo Scientific Dionex Ultimate 3000 and a Bruker amaZon SL equipped with an electrospray ionization source controlled by Bruker Hystar 3.2. Chromatographic separation was performed by injecting 5 μL of the sample onto an Agilent Eclipse Plus C18 column (2.1×50 mm, 3.5 μm) maintained at 20° C. The flow rate was maintained at 400 μL/min. The initial flow conditions were 80% solvent A (water containing 0.1% acetic acid) and 20% solvent B (methanol containing 0.1% acetic acid). Solvent B was raised to 80% over 0.50 min by 1.50 min. Solvent B was raised to 100% by 5.00 min and held there for 3.25 min. […] All analogs were detected in positive mode as [M+H]*. The percent of compound remaining at each time-point was calculated as the ratio of the integrated compound peak over the internal standard peak and standardized to the t=0 time-point. Values were plotted in GraphPad Prism 9 and fit with a one phase decay.
# as §1, with “and NADPH-regenerating” for “and NADPH regenerating”, “rpm (1872 g)” for “rpm”, “[M+H]*. […]” for “[M+H]*. The percent of compound remaining at each time-point was calculated as the ratio of the integrated compound peak over the internal standard peak and standardized to the t=0 time-point. Values were plotted in GraphPad Prism 9 and fit with a one phase decay.”
# HT-1080 cells [5] = assay: Cell viability assays in HT-1080 cells, ferroptosis induced by IKE or RSL3 (Example 8); assay type: cell-based
# Description: Cell culture assays were incubated at 37° C. with 5% CO2. HT-1080 cells were grown in DMEM (Corning) supplemented with 10% FBS (Life Technologies), 1% Penicillin-Streptomycin 10,000 U/mL (Gibco), and 1% MEM Non-Essential Amino Acids Solution 100× (Gibco). For cell viability assays, cells were trypsinized, counted, and seeded into 384-well white polypropylene plates at 1,000 cells/well, unless otherwise specified. After allowing cells to adhere overnight, compounds in DMSO stocks were arrayed in a 16-point dilution series prepared in a mother plate, and treated from a daughter plate, [DMSO]=0.28%. After 24 or 48 h, 50% CellTiter-Glo (Promega) 50% cell culture medium was added to each well and incubated at room temperature with shaking for 15 min. Luminescence was measured using a Victor X5 plate reader (PerkinElmer). All cell viability data were normalized to the DMSO vehicle condition. […] All 384w measurements were performed in triplicate
# We first evaluated the efficacy of four pyridine analogs, TH-2-9-1, TH-2-31, TH-2-37-1, and TH-2-37-2, in suppressing ferroptosis induced by IKE and RSL3 in HT-1080 cells. […] We sought to determine whether incorporation of pyridine changed stability in mouse liver microsomes.
# [6] = HT-1080, ^b 50% viability, HT-1080 treated with 3 μM IKE
# [7] = HT-1080, ^c 50% viability, HT-1080 treated with 0.2 μM RSL3
# [8] = CD1, mouse, Mouse: CD1, read-out: Microsomal Stability t1/2
# [9] = HT-1080, ^a 50% viability, HT-1080 cells treated with 10 μM erastin
# [10] = HT-1080, no footnote marker printed, inducer not stated
structure (smiles),measurement,setting,value
CCCCCCNc1cc(C(=O)OC(C)(C)C)c(F)cc1NC12CC3CC(CC(C3)C1)C2 [CFI-A8],EC50,HT-1080 cells [1]; [6],20 nM
same,EC50,HT-1080 cells [1]; [7],19 nM
same,Microsomal Stability t1/2,[2]; Mouse: CD1,Mouse: >120 min
same,average % remaining after 120 minutes,[2]; Mouse: CD1,min (76.4%) Human: TBD Rat: TBD Dog: Pig: TBD
Cc1noc(-c2cnc(NC3CCCCC3)c(NC3CCCCC3)c2)n1 [CFI-102],EC50,HT-1080 cells [1]; [6],0.9 nM
same,EC50,HT-1080 cells [1]; [7],0.9 nM
same,half-life,[2]; [8],0.5 to 1 h
same,"potency compared, in words",HT-1080 cells [3]; 3 μM IKE,the most potent analog for both IKE an RSL3
same,IC50,"HT-1080 cells [3]; 0.2 μM RSL3, read-out: IC50 against RSL3",10 to 20 nM
same,IC50,"HT-1080 cells [3]; 3 μM IKE, read-out: IC50 against IKE",10 to 20 nM
same,toxicity (overall drop in viability),HT-1080 cells [3],appeared to be toxic
same,concentration achieving full rescue,"HT-1080 cells [3]; starting concentration 5 μM, treated 51 hours, IKE and RSL3",around 0.0001 μM
C=C/C=C(/CN/C(=C/C(=C\C)C(=O)OCC)CNC(CC)CCC)C(=C)O (stereo not drawn) [CFI-M82],Microsomal Stability t1/2,[2]; Mouse: CD1,Mouse: 10 min
"CC(C)(C)OC(=O)c1ccc(NC2CCCCC2)c(NC23CC4CC(CC(C4)C2)C3)c1 [DL034, tert-butyl 3-(((3s,5s,7s)-adamantan-1-yl)amino)-4-(cyclohexylamino)benzoate]","microsomal stability / half-life, in words",[4],half-lives greater than two hours
same,"potency relative to fer-1 at suppressing ferroptosis, in words",HT-1080 cells [5],less potent than fer-1
"Cc1noc(-c2ccc(NC34CC5CC(CC(C5)C3)C4)c(NC3CCCCC3)c2)n1 [PHB4083, N1-((3s,5s,7s)-adamantan-1-yl)-N2-cyclohexyl-4-(3-methyl-1,2,4-oxadiazol-5-yl)benzene-1,2-diamine]","microsomal stability / half-life, in words",[4],half-lives greater than two hours
same,"potency relative to fer-1 at suppressing ferroptosis, in words",HT-1080 cells [5],more potent than fer-1
Cc1noc(-c2ccc(NC34CC5CC(CC(C5)C3)C4)c(N)c2)n1 [CFI-4066],EC50,HT-1080 cells [1]; [9],123 nM
same,half-life,[2]; [8],0.503 to 0.54 h
CCCCCCNc1cc(C(=O)OC(C)(C)C)c(C)cc1NC12CC3CC(CC(C3)C1)C2 [CFI-A9],EC50,HT-1080 cells [1]; [9],65 nM
same,Microsomal Stability t1/2,[2]; Mouse: CD1,Mouse: >120 min
same,average % remaining after 120 minutes,[2]; Mouse: CD1,min (83.6%) Human: TBD Rat: TBD Dog Pig: TBD
"CC(C)(C)OC(=O)c1cc(NC2CCCCC2)c(NC23CC4CC(CC(C4)C2)C3)cc1Cl [AZII11, tert-butyl 4-(((3s,5s,7s)-adamantan-1-yl)amino)-2-chloro-5-(cyclohexylamino)benzoate]","microsomal stability / half-life, in words",[4],half-lives greater than two hours
same,"potency relative to fer-1 at suppressing ferroptosis, in words",HT-1080 cells [5],less potent than fer-1
"Nc1cc(-c2ncco2)ccc1NC1CCCCC1 [PHB4051, N1-cyclohexyl-4-(oxazol-2-yl)benzene-1,2-diamine]",half-life at 20 µM,"[4]; CD-1, mouse, liver microsomes, pH 7.4, text, read-out: half-life in mouse liver microsomes",< 1 h
same,"microsomal stability / half-life, in words",[4],the least stable compound
same,"potency relative to fer-1 at suppressing ferroptosis, in words",HT-1080 cells [5],more potent than fer-1
Cc1noc(-c2cnc(NC3CCCCC3)c(N)c2)n1 [TH-2-30],EC50,HT-1080 cells [1]; [6],461 nM
same,EC50,HT-1080 cells [1]; [7],118 nM
same,"potency compared, in words",HT-1080 cells [3]; 3 μM IKE,relatively less potent; also recorded: potency comparable to Fer-1 against IKE and RSL3
same,toxicity (overall drop in viability),HT-1080 cells [3],appeared to be toxic
"COc1cnc(NC2CCCCC2)c(N)c1 [TH-2-5, N^2-cyclohexyl-5-methoxypyridine-2,3-diamine]",EC50,HT-1080 cells [1]; [10],> 350 nM
same,death observed with RSL3,"HT-1080 cells [3]; 0.2 μM RSL3, inhibitor range 10 μM-0 μM",No death was observed
"Cc1cccc(C)c1CNc1cc(C(=O)OC(C)(C)C)ccc1NC12CC3CC(CC(C3)C1)C2 [DL047, tert-butyl 4-(((3s,5s,7s)-adamantan-1-yl)amino)-3-((2,6-dimethylbenzyl)amino)benzoate]","microsomal stability / half-life, in words",[4],half-lives greater than two hours
same,"potency relative to fer-1 at suppressing ferroptosis, in words",HT-1080 cells [5],less potent than fer-1
CC(C)(C)OC(=O)c1ccc(NC2CCCCC2)c(NC23CC4CC(CC(C4)C2)C3)c1 [CFI-L034],EC50,HT-1080 cells [1]; [10],166 nM
same,half-life,"[2]; CD1 (mouse), mouse, human, in either mouse or human liver microsomes, read-out: T1/2",> 2 h
same,half-life,[2]; [8],> 2 h
same,average % remaining after 120 minutes,[2]; Mouse: CD1,min (60.2%) Human: TBD Rat: TBD Dog: Pig: TBD

# Reference: US20240156790A1, “COMPOUNDS, COMPOSITIONS, AND METHODS FOR MODULATING FERROPTOSIS AND TREATING EXCITOTOXIC DISORDERS” (THE TRUSTEES OF COLUMBIA UNIVERSITY IN THE CITY OF NEW YORK, priority 2018, published 2024)
